System: HCV 1b-377-neo replicon cells
Test: HCV replicon assay, HCV 1b-377-neo replicon cells (1b FRET)
Type: cell-based, Hepatitis C virus genotype 1b
Conditions: HCV 1b-377-neo replicon cells; HCV 1b genotype; read-out: EC50 range against HCV 1b (Table 2, Range)
Summary of the method: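 FRET-based replicon assay in HCV 1b-377-neo cells, including a comparison line carrying the NS5A Y2065H mutation that confers resistance to a reference compound.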

Row | Molecule | EC50 [nM]
1 | methyl (2-((2S)-2-(5-(4′-(2-((2S)-1-((2R)-2- (dimethylamino)-2-phenylacetyl)-2- pyrrolidinyl)-1H-imidazol-5-yl)-4-biphenylyl)- 1H-imidazol-2-yl)-1-pyrrolidinyl)-2- oxoethyl)carbamate [Example 91] | 0.001 to 0.999

Same assay, conditions: Hepatitis C virus, HCV 1b-377-neo replicon cells; HCV 1b genotype; read-out: EC50 range against HCV 1b (Table 2, Range)

Row | Molecule | EC50 [nM]
2 | COC(=O)N[C@@H](C(=O)N1CCC[C@H]1c1ncc(-c2ccc(-c3ccc(-c4[nH]c([C@@H]5CCCN5C(=O)[C@H](NC(=O)OC)c5ccccc5)nc4C(F)(F)F)cc3)cc2)[nH]1)c1ccccc1 [Example J37, methyl ((1R)-2-((2S)-2-(5-(4′-(2-((2S)-1-((2R)-2-((methoxycarbonyl)amino)-2-phenylacetyl)-2-pyrrolidinyl)-1H-imidazol-5-yl)-4-biphenylyl)-4-(trifluoromethyl)-1H-imidazol-2-yl)-1-pyrrolidinyl)-2-oxo-1-phenylethyl)carbamate] | 0.001 to 0.999
3 | CC(C)[C@H](N)C(=O)N1[C@@H]2C[C@@H]2C[C@H]1c1nc(-c2ccc(-c3ccc(-c4cnc([C@@H]5C[C@H]6C[C@H]6N5C(=O)[C@@H](N)C(C)C)[nH]4)cc3)cc2)c[nH]1 [Example M140a-i, (2S)-1-((1R,3S,5R)-3-(4-(4′-(2-((1R,3S,5R)-2-((2S)-2-amino-3-methylbutanoyl)-2-azabicyclo[3.1.0]hex-3-yl)-1H-imidazol-5-yl)-4-biphenylyl)-1H-imidazol-2-yl)-2-azabicyclo[3.1.0]hex-2-yl)-3-methyl-1-oxo-2-butanamine] | 1 to 99
4 | COC(=O)N[C@H](C(=O)N1CCC[C@@H]1c1ncc(-c2ccc(-c3ccc(-c4cnc([C@H]5CCCN5C(=O)[C@@H](NC(=O)OC)C(C)C)[nH]4)cc3)cc2)[nH]1)C(C)C [Example M28, methyl ((1S)-1-(((2R)-2-(5-(4′-(2-((2R)-1-((2S)-2-((methoxycarbonyl)amino)-3-methylbutanoyl)-2-pyrrolidinyl)-1H-imidazol-5-yl)-4-biphenylyl)-1H-imidazol-2-yl)-1-pyrrolidinyl)carbonyl)-2-methylpropyl)carbamate] | 1000 to 10000
5 | COC(=O)N[C@@H](C)C(=O)N1CCC[C@H]1c1ncc(-c2ccc(-c3ccc(-c4cnc([C@@H]5CCCN5C(=O)[C@@H]5CC(=O)N5)[nH]4)cc3)cc2)[nH]1 [cj-48] | 100 to 999
6 | CCN(CC)[C@@H](C(=O)N1CCC[C@H]1c1ncc(-c2ccc(-c3ncc(-c4c[nH]c([C@@H]5CCCN5C(=O)[C@H](C)NC(=O)OC)n4)cn3)cc2)[nH]1)c1ccccc1 [Example D77, methyl ((1S)-2-((2S)-2-(5-(2-(4-(2-((2S)-1-((2R)-2-(diethylamino)-2-phenylacetyl)-2-pyrrolidinyl)-1H-imidazol-5-yl)phenyl)-5-pyrimidinyl)-1H-imidazol-2-yl)-1-pyrrolidinyl)-1-methyl-2-oxoethyl)carbamate] | 0.001 to 0.999
7 | CC[C@@H](C)[C@H](NC)C(=O)N1CCC[C@H]1c1nc(-c2ccc(-c3ccc(-c4cnc([C@@H]5CCCN5C(=O)[C@@H](NC)[C@H](C)CC)[nH]4)cc3)cc2)c[nH]1 [Example F35, (2S,3R)-N,3-dimethyl-1-((2S)-2-(4-(4′-(2-((2S)-1-((2S,3R)-3-methyl-2-(methylamino)pentanoyl)-2-pyrrolidinyl)-1H-imidazol-5-yl)-4-biphenylyl)-1H-imidazol-2-yl)-1-pyrrolidinyl)-1-oxo-2-pentanamine] | 100 to 999
8 | COC(=O)N[C@H](C(=O)N1CCC[C@H]1c1ncc(-c2ccc(-c3ccc(-c4cnc([C@@H]5CCCN5C(=O)[C@@H](NC(=O)OC)c5ccccc5)[nH]4)cc3)cc2)[nH]1)c1ccccc1 [Example M12, dimethyl (4,4′-biphenyldiylbis(1H-imidazole-5,2-diyl(2S)-2,1-pyrrolidinediyl((1S)-2-oxo-1-phenyl-2,1-ethanediyl)))biscarbamate] | 1 to 99

— patent US8574563B2 (Bristol-Myers Squibb Company, priority 2006, dated 2013)
